Results on one compound are retold here after paper PMC5958115, “A novel small molecule chaperone of rod opsin and its potential therapy for retinal degeneration” (Nature Communications, 2018).

In series [1] the target is T1, human clarin-1 N48K (Homo sapiens, UniProt P58418, N48K).
T1 construct: expressed in transfected cells
Description: Image-based analysis of Clarin-1-N48K-Venus in HEK 293 cells. The format is cell-based. The settings on record: 24 h. On the procedure: HEK 293 stable cells co-expressing human clarin-1 N48K-Venus fluorescent protein and DsRed-Express-DR fusion protein were obtained from Dr. Yoshikazu Imanishi at Case Western Reserve University (CWRU). Cells were cultured in DMEM medium with 10% FBS following guidelines from ATCC. To test effects of YC-001 treatments on clarin-1 N48K-Venus amounts in these cells, an image-based assay was performed. Briefly, cells were seeded at 20,000 cells per well in 40 µL per well DMEM medium with 10% FBS in a 384-well PerkinElmer View plate coated with poly-D-lysine and cultured at 37 °C with 5% CO2 for 24 h. Cells then were treated with 10 µL per well DMEM medium with 10% FBS containing 5× the final concentration of tested compounds. […] Each compound was tested with 10 doses in a twofold dilution series, featuring three biological replicates. The 384-well plate was put back for incubation at 37 °C with 5% CO2. After 24 h of exposure to test compounds, the plate was removed, and the medium was aspirated and replaced by 20 µL per well of 4% paraformaldehyde for fixation at RT for 20 min. […] Images were analyzed by the Columbus storage and analysis system (PerkinElmer). Hoechst33342 fluorescence images were used to define nuclei and count cells. […] YFP and DsRed fluorescence intensities per cell were measured in each well.

Series [2] relates to C57BL/6 mice. Description: Toxicity by daily i.p. injections, survival, behavior and body weight. The class given is in vivo. The settings on record: 200 and 100 mg kg^−1 bw daily i.p., day 14 to 38, vs DMSO. On the procedure: To estimate the long-term toxicity of YC-001 in mice, we administered YC-001 to C57BL/6 mice by daily i.p. injections from Day 14 to 38 after birth with one of two doses, either 100 mg kg^−1 or 200 mg kg^−1 bw. Equivalent volumes of DMSO were injected into control groups. Body weights of treated mice were measured daily. Each dosage group contained three mice including males and females.

For series [3], the target named is T2, human rod opsin D190N (Homo sapiens, UniProt P08100, D190N).
T2 construct: expressed in transfected cells; host or cells: NIH3T3 cells, transient transfection with pcDNA3.1-hOpsin mutant
Description: Cell-surface immunostain of rod opsin mutant in transfected NIH3T3 cells. The class given is cell-based. The settings on record: 10 µM, 24 h. On the procedure:
(§1) Human rhodopsin cDNA was placed into the pcDNA3.1(+) vector (pcDNA3.1-hOpsin). Site-directed mutagenesis was performed following the QuickChange II site-directed mutagenesis kit (Agilent Technologies Inc.). Primers for the following mutations were as follows: T4R-forward, 5′-[…]-3′; T4R-reverse, 5′-[…]-3′; P53R-forward, 5′-[…]-3′; P53R-reverse, 5′-[…]-3′; G106R-forward, 5′-[…]-3′; G106R-reverse, 5′-[…]-3′; C110Y-forward, 5′-[…]-3′; C110Y-reverse, 5′-[…]-3′; D190N-forward, 5′-[…]-3′; D190N-reverse, 5′-[…]-3′; P267L-forward, 5′-[…]-3′; P267L-reverse, 5′-[…]-3′. DNA vectors with rhodopsin mutations were confirmed by Sanger sequencing. After NIH3T3 cells were transfected with pcDNA3.1-hOpsin or its mutants for 24 h, these cells were resuspended and seeded into a 96-well plate with an optic bottom (Corning). […] Each condition was repeated in three wells. The treated plate was covered in tin foil and incubated at 37 °C with 5% CO2 for 24 h. Cells were then immunostained with 50 µg mL^−1 Alexa488-conjugated B6-30 anti-rhodopsin antibody. Cells were not exposed to detergents so that cell membranes were kept intact and only rhodopsin on the cell surface was immunostained. Alexa 488 fluorescence was imaged by the ImageExpress (Molecular Devices) high-content imager with a ×20 objective.

Series [4] concerns the target T3, human rod opsin G106R (Homo sapiens, UniProt P08100, G106R).
T3 construct: expressed in transfected cells; host or cells: NIH3T3 cells, transient transfection with pcDNA3.1-hOpsin mutant
The series is described as above. To be noted: 10 µM, 24 h. The format is cell-based. On the procedure: as §1

In series [5] the target is T4, human rod opsin C110Y (Homo sapiens, UniProt P08100, C110Y).
T4 construct: expressed in transfected cells; host or cells: NIH3T3 cells, transient transfection with pcDNA3.1-hOpsin mutant
Described as above. The class given is cell-based. To be noted: 10 µM, 24 h. On the procedure: as §1

Series [6] concerns the target T5, human rod opsin P53R (Homo sapiens, UniProt P08100, P53R).
T5 construct: expressed in transfected cells; host or cells: NIH3T3 cells, transient transfection with pcDNA3.1-hOpsin mutant
The description is as above. The settings on record: 10 µM, 24 h. The class given is cell-based. On the procedure:
as §1

Series [7] deals with T6, human rod opsin P267L (Homo sapiens, UniProt P08100, P267L).
T6 construct: expressed in transfected cells; host or cells: NIH3T3 cells, transient transfection with pcDNA3.1-hOpsin mutant
The series is described as above. The class given is cell-based. To be noted: 10 µM, 24 h. On the procedure: as §1

Series [8] concerns the target T7, ovine COX-1 (Ovis aries, UniProt P05979).
T7 construct: purchased Abcam
Description: COX-1 activity assay (fluorometric). The format is biochemical. The settings on record: up to 80 µM. On the procedure: The effect of the compound YC-001 on COX-1 activity was evaluated using the COX-1 Inhibitor Screening Kit (Abcam, Cambridge, MA, USA) according to the manufacture’s protocol. Briefly, the assay is based on the fluorometric detection of Prostaglandin G2, the intermediate product generated by the COX-1 enzyme. COX reaction mix included ovine COX-1, COX probe, and COX cofactor was prepared in a 96-well plate. YC-001 working solutions were dissolved in DMSO, and then mixed with COX Reaction Mix to the final concentrations (80, 40, 20, 10, 5, 2.5, 1.25, 0.625, 0.312, 0.156, 0.078 and 0.039 µM). Equivalent volume of DMSO was used as vehicle control and SC560 was used as a positive control. All controls and samples were measured in triplicate. Then arachidonic acid was added into each well to initiate all the reactions at the same time. The fluorescence was measured at Ex/Em = 535/587 nm in a kinetic mode for 15 min at 25 °C. Five time points were chosen in the linear range of the plot and the corresponding values for the fluorescence were used to calculate the slope of the linear regression equation. Relative COX-1 activity was calculated as Eq. 5: RelativeCOX-1Activity(%)=Slopeofsample/Slopeofenzymecontrol×100 .

Series [9] deals with P23H opsin. The settings on record: cited from earlier work.
Details of series [10]: method as in PubChem database, CID 2377702. The settings on record: ref PubChem database, CID 2377702; cited from earlier work.

T1 sequence (P58418 whole entry N48K): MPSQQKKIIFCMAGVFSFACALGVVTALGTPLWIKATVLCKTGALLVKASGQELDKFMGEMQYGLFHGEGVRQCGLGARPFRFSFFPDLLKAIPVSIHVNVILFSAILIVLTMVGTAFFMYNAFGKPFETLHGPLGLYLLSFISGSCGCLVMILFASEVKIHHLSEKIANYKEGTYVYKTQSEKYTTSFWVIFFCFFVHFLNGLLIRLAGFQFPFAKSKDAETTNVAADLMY
T7 sequence (P05979 25-600): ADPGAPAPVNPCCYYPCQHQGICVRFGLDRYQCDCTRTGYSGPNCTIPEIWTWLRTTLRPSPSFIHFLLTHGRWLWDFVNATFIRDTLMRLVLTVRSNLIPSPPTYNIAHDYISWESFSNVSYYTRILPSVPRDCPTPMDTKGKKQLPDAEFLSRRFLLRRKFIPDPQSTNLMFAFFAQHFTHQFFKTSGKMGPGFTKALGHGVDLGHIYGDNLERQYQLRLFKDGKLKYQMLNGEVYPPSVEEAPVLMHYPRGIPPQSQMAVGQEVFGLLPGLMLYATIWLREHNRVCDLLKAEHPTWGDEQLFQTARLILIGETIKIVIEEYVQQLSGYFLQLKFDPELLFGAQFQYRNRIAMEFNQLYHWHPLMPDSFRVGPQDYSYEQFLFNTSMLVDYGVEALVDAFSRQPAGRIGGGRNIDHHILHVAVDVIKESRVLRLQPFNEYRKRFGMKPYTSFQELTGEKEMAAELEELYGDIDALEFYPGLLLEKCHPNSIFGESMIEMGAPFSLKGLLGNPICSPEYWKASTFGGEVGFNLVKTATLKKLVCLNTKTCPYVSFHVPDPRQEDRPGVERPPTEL

Turning to `O=C1OCC(c2ccc(Cl)s2)=C1c1cccs1` [YC-001], the “effect on amount or stability of the clarin-1 N48K mutant” value in series [1] is “did not affect the amount or stability”. The “behavioral or bw growth changes” value in series [2] was “no obvious behavioral or bw growth changes”. The “cell-surface staining of D190N rod opsin” value in [3] is “increased significantly”. Besides, the “cell-surface staining of G106R rod opsin” value in [4] is listed as “increased significantly”. Further, in series [5], the “cell-surface staining of C110Y rod opsin” value was “not P53R or C110Y mutants increased significantly”. Further, the “cell-surface staining of P53R rod opsin” value in series [6] is “not P53R or C110Y mutants increased significantly”. Also, the “cell-surface staining of P267L rod opsin” value in series [7] is on record as “increased significantly”. Moreover, in [8], the COX-1 enzymatic activity entry is “did not see changes”. Further, the “effect of co-treatment with scriptaid” value in series [9] was “synergistic effect”. Besides, the “activity in 8 other bioassays” value in series [10] is “no known activities”.
